According to patent publication US20220249352A1, “MICROPARTICLES BASED ON ESTER DERIVATIVES OF HYALURONAN, METHOD OF PRODUCTION, COMPOSITION COMPRISING THEREOF AND USE THEREOF” (CONTIPRO A.S., priority 2019, published 2022):

Columns and labels:
[1] = test system: HMGCS1 mRNA expression in HaCaT keratinocyte cells; experiment: Expression of cholesterol synthesis gene HMGCS1 (QRT-PCR); assay type: cell-based; settings: HaCaT keratinocytes, 48 hours
Experimental: (§1) This example illustrates the expressional changes in keratinocyte cholesterol metabolism pathway components (upon treatment with HA−ATRA (prepared as described in examples 5, 9), unbound ATRA and HA (HA+ATRA), hyaluronan (HA), untreated control (CTRL), retinoic isomers (13-cis-RET) and 9 cis (9-cis-RET). The HaCaT keratinocyte cells were individually treated with the compounds described below for 48 hours and sampled in the indicated times. The mRNA expression of HMGCS1, SQLE and DHRS3 was analyzed with quantitative real-time PCR (QRT-PCR) using a StepOnePlus (ThermoFisher, Waltham, Mass., USA). Briefly, 500 ng of total RNA was transcribed to cDNA (High-Capacity cDNA Reverse Transcription Kit, ThermoFisher, Waltham, Mass., USA). Approximately 5 ng of cDNA was used for QRT-PCR reaction in 10 μl volume. The TaqMan assays (all from ThermoFisher, Waltham, Mass., USA) used were: HMGCS1 (Hs00940429_m1), SQLE (Hs01123768_m1), DHRS3 (Hs01044021_m1) and RPL13A (Hs04194366_g1). Duplicate reaction tubes were set up for each sample. All expression values for HMGCS1, SQLE and DHRS3 were related to the amount of the housekeeping gene RPL13A to correct for variations in RNA levels and efficiency in cDNA synthesis. Regarding the analyzed enzyme involved in cholesterol synthesis, only treatment with microparticles of HA−ATRA increased the expression of HMGCS1 and SQLE, all samples containing retinoids increased expression of positive control DHRS3 (FIG. 10). However, microparticles HA−ATRA can upregulate cholesterol synthesis gene HMGCS1 like when the molarity of the retinoic acid bound to HA is the same in both treatments, this is shown in FIG. 11.

[2] = Thermogravimetric analysis (TGA), thermal decomposition; assay type: physicochemical
Experimental: In this disclosure, it is further reported that the amount of active ATRA is conserved after four weeks of storage at 40° C., in the absence of any further toxic antioxidant, which is an advantage to the previously reported art such as US 20190015366 A1 and WO2015092602A1, that require the presence of the toxic benzoyl peroxide, which have been reported as an inductor of photo-carcinogenesis in hairless mice after solar radiation. Similar art was reported in US20100166852A1. In the present embodiments, the microparticles made of HA−ATRA were stored for prolonged times in the presence of air the microparticles are stable, while the obtained powders degraded faster (FIGS. 2 and 4). […] In this disclosure, the thermal decomposition of the HA−ATRA microparticles was compared with the native polysaccharide and pure retinoic acid using thermogravimetric analysis (TGA) according to de Mendonça CMS, de Barros Lima IP, Aragão CFS, Gomes APB in Thermal compatibility between hydroquinone and retinoic acid in pharmaceutical formulations. Journal of Thermal Analysis and calorimetry 2014; 115:2277-85.
In brief, the TGA (Thermogravimetric analyses) was performed on the microparticles on a […]. About 2 mg of powder was accurately weighed samples were loaded into aluminum pans and analyzed. […]

[3] = test system: SQLE mRNA expression in HaCaT keratinocyte cells; experiment: Expression of cholesterol synthesis gene SQLE (QRT-PCR); assay type: cell-based; settings: HaCaT keratinocytes, 48 hours
Experimental: as §1

Row | Structure (SMILES) | expression of HMGCS1 [1] | temperature range of decomposition (three stages, TG curve) [2] | expression of SQLE [3]
1 | CC(C=CC1=C(C)CCCC1(C)C)=CC=CC(C)=CC(=O)O [ATRA, 3,7-dimethyl-9-(2,6,6-trimethyl-1-cyclohexene-1-yl)-2,4,6,8-nonatetraenoic acid] | did not induce | 185−609 °C | did not induce
2 | CC1=C(/C=C/C(C)=C\C=C\C(C)=C\C(=O)O)C(C)(C)CCC1 [9-cis retinoic, 9-cis retinoic acid] | neither unbound 9-cis retinoic nor 13-cis retinoic acid were able to upregulate |  | neither unbound 9-cis retinoic nor 13-cis retinoic acid were able to upregulate
3 | CC1=C(/C=C/C(C)=C/C=C/C(C)=C\C(=O)O)C(C)(C)CCC1 [13-cis retinoic acid] | neither unbound 9-cis retinoic nor 13-cis retinoic acid were able to upregulate |  | neither unbound 9-cis retinoic nor 13-cis retinoic acid were able to upregulate
